Measured values as given in patent US6458838B1, “Adrenoleukodystrophy treatments” (Johns Hopkins University, priority 1999, dated 2002).

What was measured:
Type in all cases: cell-based
[1] = system: human primary fibroblasts derived from X-ALD patients; assay: VLCFA (C24:0, C26:0) levels in cultured cells, capillary GC
Description: (§1) The genotypes of the X-ALD patients included missense, nonsense, frame shift and deletion mutations and all of the main clinical phenotypes.
After two days of treatment, a time-dependent reduction in VLCFA levels in human and mouse X-ALD cell lines was observed. In human lymphoblastoid cells and mouse fibroblasts, C24:0 and C26:0 levels were normalized within 10 days of treatment, In human X-ALD fibroblasts, C24:0 levels were normalized within 10 days, whereas C26:0 levels were reduced by 47% after 22 days. The results obtained were independent of genotype or phenotype.
Cell culture and 4-PBA treatment. Cell lines derived from X-ALD patients and X-ALD mice were grown in MEM (fibroblasts) or RPMI (ymphoblastoid cells) supplemented with fetal calf serum (10%), penicillin (100 U/ml), streptomycin (100 U/mi) and glutamine (2 mM). […]
Biochemical measurements. […] C24:0 β-oxidation activity of human and mouse fibroblasts and human lymphoblastoid cells was determined by measuring their capacity to degrade [1-^14C]-C24:0 fatty acid (American Radiolabeled Chemicals, St Louis, Mo.) to water-soluble products as described. Phytanic acid oxidation was measured as described. Cells were incubated with [2,3-^3H]-phytanic acid for 24 hours, and the release of ^3H-H2O to the aqueous medium was determined (activity in pmol/hr per mg protein).

[2] = system: human lymphoblastoid cells (EBV-transformed lymphocytes) derived from X-ALD patients; assay: as above; settings: for C26:0 Percent Correction: 5 mM 4PBA
Method: as §1
Cell lines derived from X-ALD patients and X-ALD mice were grown in MEM (fibroblasts) or RPMI (ymphoblastoid cells) supplemented with fetal calf serum (10%), penicillin (100 U/ml), streptomycin (100 U/mi) and glutamine (2 mM). […] Cells in the second flask were grown without drug for the same length of time and served as controls. The media were changed every 3-4 days.
Biochemical measurements. […] For VLCFA measurements, total lipids were extracted, converted to methyl esters, purified by TLC and subjected to capillary GC analysis as described. Duplicate assays were set up independently and were assayed on different days. C24:0 β-oxidation activity of human and mouse fibroblasts and human lymphoblastoid cells was determined by measuring their capacity to degrade [1-^14C]-C24:0 fatty acid (American Radiolabeled Chemicals, St Louis, Mo.) to water-soluble products as described. Phytanic acid oxidation was measured as described. Cells were incubated with [2,3-^3H]-phytanic acid for 24 hours, and the release of ^3H-H2O to the aqueous medium was determined (activity in pmol/hr per mg protein).

[3] = system: human control primary skin fibroblasts; assay: Immunofluorescence peroxisome counting; settings: 10 day exposure to 5 mM 4PBA
Description: Peroxisomes were made visible with immunofluorescence using a polyclonal antibody to the C-terminal tripeptide (SKL) peroxisome targeting signal 1 (PTS1), which is present in most peroxisomal matrix proteins. […] We counted the peroxisomes after 10 days of treatment (Table 3). Slides were scanned visually and cells categorized as having low, medium or high numbers of peroxisomes. For each cell line, the number of peroxisomes is the mean of three ‘low’, four ‘medium’ and three ‘high’ cells (Table 3). There was no difference between control cells and X-ALD cells in either the number of peroxisomes per cell or in the response to 4-PBA. […] The 2.4-fold increase in the number of peroxisomes per cell was statistically significant (P<0.0000001, two-tailed Student's t-test). Peroxisome numbers obtained with an antibody against a peroxisomal membrane protein (Pex14p) gave similar results (data not shown).
Immunofluorescence and peroxisome counting. […] The anti-SKL (PTSI) antibody was a gift from S. Gould and the anti-Pex11α antibody was a gift from S. Mihalik. To count peroxisomes, we photographed immunofluorescence-stained cells after focusing on the cell nucleus, and determined the peroxisome number per cell with the aid of a colon counter after projecting the slides to enlarge the image.

[4] = system: ALDRP; assay: Western blot with densitometry relative to β-actin; settings: normal mouse fibroblasts, after 10 days of exposure; data not shown
Description: Open bars, untreated cells; hatched bars, treated cells.
These findings indicate that ALDP1 and ALDRP may occupy equivalent domains within the peroxisomal membrane. This would agree with the observation that ALDP and ALDRP are generally expressed in different cell types.
Western blot analysis. Tissue culture cells were scraped from tissue culture dishes using a policeman, into cold PBS solution and protease inhibitor cocktail (Boehringer). Samples were mixed (1:1) with 2× sample buffer. Total protein samples were fractionated by SDS-PAGE using a 7.5% gel using the method of Laemmlis'. […] Enhanced chemiluminescence (SuperSignal Substrate; Pierce, Rockford, Ill.) was used to detect bound antibody.

## O=C(O)CCCc1ccccc1 [4-PBA, 4-Phenyl butyrate]
[1]; 5 mM 4-PBA, after 22 days
  C26:0 levels reduced by: 47%
[1]; between 1 mM and 5 mM 4-PBA, human X-ALD fibroblasts and lymphoblastoid cells, data not shown
  effect of concentration on VLCFA levels: dose-dependent decrease
[2]; 5 mM 4-PBA
  time of treatment until C24:0 and C26:0 levels were normalized: ≤ 10 days
[2]; exposure 6 days
  C26:0 Percent Correction: 71%
[2]; exposure 10 days
  C26:0 Percent Correction: 90%
[3]; Mean of four normal cell lines
  peroxisome number, Increase: 2.3 fold
  peroxisome number, Treated: 939 ± 78 peroxisomes per cell
[3]; cell line Normal GM 5565
  peroxisome number, Increase: 2.3 fold
  peroxisome number, Treated: 961 ± 383 peroxisomes per cell
[3]; cell line Normal GM 5659C
  peroxisome number, Increase: 2.3 fold
  peroxisome number, Treated: 907 ± 270 peroxisomes per cell
[3]; cell line Normal GM 5756
  peroxisome number, Increase: 2.3 fold
  peroxisome number, Treated: 852 ± 271 peroxisomes per cell
[3]; cell line Normal GM 5757A
  peroxisome number, Increase: 2.4 fold
  peroxisome number, Treated: 1035 ± 338 peroxisomes per cell
[4]
  ALDRP protein level: not increased
